According to ChEMBL document CHEMBL3507680, “University of Dundee, Gates Library screen for HepG2 cell viability”:

Assay: Human HepG2 cell viability assay in 384 well format
Format: toxicity, cell-based
Design: dose 125 nL, time 70.5 hour; cytotoxicity at 70.5 h: concentration not given beside the values
Conditions: HepG2 cells, read-out: Inhibition

| SMILES | cytotoxicity at 70.5 h [%] |
| --- | --- |
| CN(CC1(CO)CC1)C(=O)C1CCC(=O)N(Cc2ccc(Cl)cc2)C1 (configuration not stated) | -1.51 |
| OC1(CNCc2noc(Cc3ccccc3)n2)CCCNC1 (configuration not stated) | 0.455 |
| CCN(Cc1nccn1C)C(=O)c1ccc(NCc2cnn(C)c2)nc1 | -3.96 |
| COc1ccc(-n2ccnc2-c2cnc(N(C)C)nc2)cc1OC | -6.47 |
| O[C@@H]1CN(CC2=Cc3cc(Cl)ccc3OC2)CC[C@H]1N1CCCCCC1 | -11 |
| O=C(c1ccc(S(=O)(=O)NCCc2ccncc2)cc1)N1CCCC1 | -19.6 |
| Cc1n[nH]c(C)c1CCc1nc(C2CC2)n[nH]1 | -6.37 |
| CCNC(=O)[C@@H]1C[C@H](N)CN1c1cc(C(F)(F)F)nc(N2CCCC2)n1 | 3.41 |
| COc1ccc2c(c1)OCC(Cc1ccc(N)cn1)C2 (configuration not stated) | 2.07 |
| COc1nc2c(cc1C(=O)NCCCc1csc(N)n1)CCC2 | -6.85 |
| CC(=O)N[C@@H]1CN(Cc2ccccc2-n2cccn2)C[C@H]1C(C)C | -4.08 |
| Cc1cc(C(=O)N2C[C@H]3CC[C@@H]2CN(C(=O)c2ccncc2)C3)cs1 | -1.99 |
| Cc1nccn1CCN(C)C(=O)c1cn(CC2CCCCC2)nn1 | -25.4 |
| CC(C)N1CCCC(C(=O)N2CCc3c(nc(CC4CC4)[nH]c3=O)C2)C1 (configuration not stated) | 3.48 |
| CN(C)CCN1CC(C(=O)N2CCC(c3nccn3C)CC2)CC1=O (configuration not stated) | 6.94 |
| c1ccc2c(c1)CC(Cc1cc(N3CCCC3)cnn1)CCO2 (configuration not stated) | 2.31 |
| Cc1ccc(C(=O)N2CC[C@H](N3CCOCC3)[C@H](CCCO)C2)cc1O | -8.22 |
| Cc1n[nH]c(C)c1Sc1ccccc1NC(=O)CN1CCCC1 | -3.41 |
| CC1(c2ccccc2)CCC(=O)N(CCCN2CCOCC2)C1 (configuration not stated) | -8.26 |

| SMILES | cytotoxicity at 70.5 h [%] |
| --- | --- |
| CN1CC2(CCN(Cc3ncc[nH]3)CC2)CC1=O | -4.6 |
| NC(=O)CCn1cc(CNCc2csc(N)n2)c2ccccc21 | -2.33 |
| COCc1cn(C2CCN(Cc3ccc(Cl)s3)CC2)nn1 | -12.4 |
| CC(C)c1nc(C(=O)N2C[C@H](C(C)C)[C@@H](N)C2)cs1 | -0.955 |
| CC(C)(C)n1ccc(C(=O)N2CCCC(c3ccc(C(=O)O)cc3)C2)c1 (configuration not stated) | -13.3 |
| CC(=O)CCCC(=O)N(Cc1ccsc1)CC(C)C | -5.67 |
| O=C(NCCCc1ccccn1)c1cn(CCN2CCNCC2)nn1 | -9.59 |
| CCN(C)S(=O)(=O)N[C@H]1CN(c2ccc(F)cn2)C[C@@H]1C(C)C | -1.25 |
| Cc1cc(C(=O)N2CCc3[nH]cnc3C2C(=O)O)c(-c2ccccc2)o1 (configuration not stated) | -3.87 |
| Cc1ccccc1SCC(=O)N[C@H]1CC[C@H](n2cnnc2)CC1 | -5.74 |
| CCN1CC2(CCC1=O)CCN(CCc1nccn1C)CC2 | -6.75 |
| CC[C@H](C)[C@@H](CO)NC(C)Cc1ccc(Cl)cc1 (some centres not stated) | -2.7 |
| c1cc(CN2CCC(n3cc(CN4CCCC4)nn3)CC2)cs1 | -5.26 |
| Cc1cc(C)n2ncc(CN3CCC(n4cc(CCO)nn4)CC3)c2n1 | -1.82 |
| CCCN(Cc1nccn1C)C(=O)c1cc(C(C)C)on1 | 3.45 |
| CCc1cnc(NCCS(=O)(=O)N(C)C)nc1 | 20.6 |
| Cc1noc(CN2C[C@H]3CC[C@@H]2CN(C2Cc4ccccc4C2)C3)n1 | 4.75 |
| CC(C)CN1CCc2[nH]cnc2C12CCN(C(=O)c1ccccn1)CC2 | -3.63 |
| COc1ccccc1OC1CCN(C(=O)c2cnc(C)s2)CC1 | -4.88 |

| SMILES | cytotoxicity at 70.5 h [%] |
| --- | --- |
| CC(C)N(Cc1nccn1C)C(=O)c1cnc(O)cn1 | -3.41 |
| c1ccc(C2CCCN2C2CCSCC2)nc1 (configuration not stated) | 0.0849 |
| O=c1[nH]cnc2c1CCN(S(=O)(=O)c1ccc(OC(F)(F)F)cc1)C2 | -9.4 |
| CC(C)CN1CCCn2nc(CNC(=O)OCc3ccccc3)cc2C1 | -5.5 |
| COc1ccc(N2CCN(C(=O)[C@H]3[C@@H]4CNC[C@@H]43)CC2(C)C)cc1 | 18.4 |
| CC(C)(C)c1ccc(C(=O)C2CCCN(C(=O)CNS(C)(=O)=O)C2)cc1 (configuration not stated) | 23.1 |
| CCc1cc(N(C)Cc2ncc[nH]2)nc(N2CCOCC2)n1 | -15.9 |
| COc1ccccc1C1CCN(c2ccc3cc[nH]c3n2)CC1 | -7.33 |
| Cc1ccccc1C(C(=O)O)N(C)CC1CCOCC1 (configuration not stated) | -2.17 |
| Cc1csc2c(N3CCC(NCCc4ccnn4C)CC3)ncnc12 | 6.94 |
| O=C(c1ccc2cccnc2n1)N(Cc1ccsc1)CC1CCCO1 (configuration not stated) | -12.4 |
| CCN1CCN(C(=O)c2cnc(Cc3c(Cl)cccc3Cl)nc2O)CC1 | -4.18 |
| CC(C)[C@H]1CN(C2Cc3ccccc3C2)C[C@@H]1NS(=O)(=O)N(C)C | 0.396 |
| COCCN1CCC(CN(C)c2nc3c(s2)c(C)nn3C)CC1 | 13.5 |
| Cc1ccc(C)c(C(NC2CCCC2)c2cccnc2)c1 (configuration not stated) | 7.4 |
| COCCOCC(=O)N(Cc1cccc(C)c1)C(C)C | 3.91 |
| Cc1ncsc1CCC(=O)NCc1csc(N(C)C)n1 | -1.1 |
| CCn1cncc1CNC(=O)c1ccc(C2CCCN2C(=O)COC)s1 (configuration not stated) | -12 |
| CSCc1noc(CNC2CCCC(C)(C)C2)n1 (configuration not stated) | -5.82 |
